Consider 21 compounds from US4521537A, “Spiro[2H-1,4-benzodioxepin-3(5H)4'-piperidine and -3'-pyrrolidine] compounds and their use as antihypertensive agents” (Hoechst-Roussel Pharmaceuticals Incorporated, priority 1984, dated 1985).

Structures can show the parent of a compound that is named as a salt.

This experiment relates to spontaneous hypertensive rat. As to the kind of experiment: antihypertensive activity, spontaneous hypertensive rat (SHR) test, indirect tail cuff method. The experiment is classed as in vivo. Here is the method: Compounds of this invention are useful as antihypertensive agents due to their ability to depress blood pressure in mammals. Antihypertensive activity is measured in the spontaneous hypertensive rat by the indirect tail cuff method described by A. Schwartz, Ed., Methods in Pharmacology, Vol. page 135, Appleton Century Crafts, New York (1971). […] The drop in blood pressure is measured on the third day following administration. The antihypertensive activity is expressed as mm Hg decrease in mean arterial blood pressure.

Setting [1] is: Table I, 50 mg/kg PO, three days.
[2] abbreviates: Table I, 3 mg/kg PO, three days.
Setting [3] is: Table I, 10 mg/kg PO, three days.

For `CC1Oc2ccccc2COC12CCN(CCCC(c1ccc(F)cc1)c1ccc(F)cc1)CC2` (centres unmarked) [Example 8, 1'-[4,4-Bis-(4-fluorophenyl)butyl]-2-methylspiro[2H-1,4-benzodioxepin-3(5H)4'-piperidine]oxalate], the “SHR mm Hg (decrease in mean arterial blood pressure)” value under setting [1] is listed as -102 mm Hg. Take `CC1Oc2ccccc2COC12CCN(CCCC1(c3ccc(F)cc3)OCCO1)CC2` (centres unmarked) [Example 9, 2-Methyl-1'-[3-[2-(4-fluorophenyl)-1,3-dioxolan-2yl]propyl]spiro[2H-1,4-benzodioxepin-3(5H)4'-piperidine]maleate]: the “SHR mm Hg (decrease in mean arterial blood pressure)” value under setting [1] was -34 mm Hg. Same read-out and setting: for `CC1Oc2ccccc2COC12CCN(CCC=C(c1ccc(F)cc1)c1ccc(F)cc1)CC2` (centres unmarked) [Example 10, 1'-[4,4-Bis(4-fluorophenyl)-3-butenyl]-2-methylspiro[2H-1,4-benzodioxepin-3(5H)4'-piperidine]maleate] the value was -18 mm Hg; for `CC1Oc2ccccc2COC12CCN(CCCC(c1ccccc1)c1ccccc1)CC2` (centres unmarked) [Example 11, 1'-(4,4-Diphenylbutyl)-2-methylspiro[2H-1,4-benzodioxepin-3(5H)4'-piperidine]oxalate], -17 mm Hg; for `CC1Oc2ccccc2COC12CCN(CCC=C(c1ccccc1)c1ccccc1)CC2` (centres unmarked) [Example 12, 1'-[4,4-Diphenyl-3-butenyl]-2-methylspiro[2H-1,4-benzodioxepin-3(5H)4'-piperidine]maleate], -20 mm Hg. For the compound `CC1Oc2ccccc2COC12CCN(CCCCc1ccc(F)cc1)CC2` (centres unmarked) [Example 14, 1'-[4-(4-Fluorophenyl)butyl]-2-methylspiro[2H-1,4-benzodioxepin-3(5H)4'-piperidine]hydrochloride], the “SHR mm Hg (decrease in mean arterial blood pressure)” value under setting [1] is recorded as -34 mm Hg. `CC1Oc2ccccc2COC12CCN(CCCC(c1ccc(Cl)cc1)c1ccc(Cl)cc1)CC2` (centres unmarked) [Example 15, 1'-[4,4-Bis(4-chlorophenyl)butyl]-2-methylspiro[2H-1,4-benzodioxepin-3(5H)4'-piperidine]oxalate]: under setting [1], the “SHR mm Hg (decrease in mean arterial blood pressure)” value is on record as -27 mm Hg. The same measure, in the same setting: the result for `CC1Oc2ccc(Cl)cc2COC12CCN(CCC=C(c1ccccc1)c1ccccc1)CC2` (centres unmarked) [Example 16, 1'-[4,4-Diphenyl-3-butenyl]-7-chloro-2-methylspiro[2H-1,4-benzodioxepin-3(5H)4'-piperidine]oxalate] reads -47 mm Hg. Turning to `CC1Oc2ccc(Cl)cc2COC12CCN(CCCC(c1ccccc1)c1ccccc1)CC2` (centres unmarked) [Example 17, 1'-[4,4-Diphenylbutyl]-7-chloro-2-methylspiro[2H-1,4-benzodioxepin-3(5H)4'-piperidine]oxalate], the “SHR mm Hg (decrease in mean arterial blood pressure)” value is reported as -23 mm Hg under setting [2] and -84 mm Hg under setting [1]. As for `CC1Oc2ccc(Cl)cc2COC12CCN(CCCC(c1ccc(F)cc1)c1ccc(F)cc1)CC2` (centres unmarked) [Example 18, 1'-[4,4-Bis(4-fluorophenyl)butyl]-7-chloro-2-methylspiro[2H-1,4-benzodioxepin-3(5H)4'-piperidine]oxalate], the “SHR mm Hg (decrease in mean arterial blood pressure)” value (Table I, 0.3 mg/kg PO, three days) is reported as -41 mm Hg. `CC1Oc2ccc(Cl)cc2COC12CCN(CCC=C(c1ccc(F)cc1)c1ccc(F)cc1)CC2` (centres unmarked) [Example 19, 1'-[4,4-Bis(4-fluorophenyl)-3-butenyl]-7-chloro-2-methylspiro[2H-1,4-benzodioxepin-3(5H)4'-piperidine]oxalate]: the “SHR mm Hg (decrease in mean arterial blood pressure)” value under setting [3] is listed as -43 mm Hg. Consider `CC1Oc2ccc(Cl)cc2COC12CCN(CCC(c1ccccc1)c1ccccc1)CC2` (centres unmarked) [Example 20, 7-Chloro-2-methyl-1'-(3,3-diphenylpropyl)spiro[2H-1,4-benzodioxepin-3(5H)4'-piperidine]hydrochloride], for which the “SHR mm Hg (decrease in mean arterial blood pressure)” value under setting [1] is -15 mm Hg. `CC1Oc2ccc(Br)cc2COC12CCN(CCCC(c1ccc(F)cc1)c1ccc(F)cc1)CC2` (centres unmarked) [Example 21, 7-Bromo-1'-[4,4-bis(4-fluorophenyl)butyl]-2-methylspiro[2H-1,4-benzodioxepin-3(5H)4'-piperidine]oxalate]: the “SHR mm Hg (decrease in mean arterial blood pressure)” value reads like this: under setting [2], -63 mm Hg; (Table I, 5 mg/kg PO, three days) -74 mm Hg. Regarding `CC1Oc2ccccc2COC12CCN(CCCC(O)c1ccc(F)cc1)CC2` (centres unmarked) [Example 23, 1'-[4-Hydroxy-4-(4-fluorophenyl)butyl]-2-methylspiro[2H-1,4-benzodioxepin-3(5H)4'-piperidine]], the “SHR mm Hg (decrease in mean arterial blood pressure)” value under setting [3] is recorded as -31 mm Hg. `CC1Oc2ccccc2COC12CCN(CCCC(Oc1ccc(F)cc1)c1ccc(F)cc1)CC2` (centres unmarked) [Example 24, 1'-[4-(4-Fluorophenoxy)-4-(4-fluorophenyl)butyl]-2-methylspiro[2H-1,4-benzodioxepin-3(5H)4'-piperidine]oxalate]: the “SHR mm Hg (decrease in mean arterial blood pressure)” value under setting [1] was -24 mm Hg. For the compound `CC1Oc2ccccc2COC12CCNCC2` (centres unmarked) [Example 36, 2-Methylspiro[2H-1,4-benzodioxepin-3(5H)4'-piperidine]oxalate], the “SHR mm Hg (decrease in mean arterial blood pressure)” value under setting [1] is -42 mm Hg. As for `CC1Oc2ccc(F)cc2COC12CCN(CCCC(c1ccccc1)c1ccccc1)CC2` (centres unmarked) [Example 41, 1'-(4,4-Diphenylbutyl)-7-fluoro-2-methylspiro[2H-1,4-benzodioxepin-3(5H)4'-piperidine]hydrochloride], the “SHR mm Hg (decrease in mean arterial blood pressure)” value under setting [1] is reported as -34 mm Hg.

On to `CC1Oc2ccc(F)cc2COC12CCN(CCCC(c1ccc(F)cc1)c1ccc(F)cc1)CC2` (centres unmarked) [Example 42, 1'-[4,4-Bis(4-fluorophenyl)butyl]-7-fluoro-2-methylspiro[2H-1,4-benzodioxepin-3(5H)4'-piperidine]hydrochloride], for which the “SHR mm Hg (decrease in mean arterial blood pressure)” value under setting [1] is recorded as -126 mm Hg. For the compound `CC1Oc2ccc([N+](=O)[O-])cc2COC12CCN(CCCC(c1ccc(F)cc1)c1ccc(F)cc1)CC2` (centres unmarked) [Example 83, 1'-[4,4-Bis(4-fluorophenyl)butyl]-2-methyl-7-nitrospiro[2H-1,4-benzodioxepin-3(5H)4'-piperidine]hydrochloride], the “SHR mm Hg (decrease in mean arterial blood pressure)” value (Table III, 3 mg/kg PO) is listed as -65 mm Hg.

Regarding `CC1Oc2ccc(Cl)cc2COC12CCN(CCCC(C1CCCCC1)C1CCCCC1)CC2` (centres unmarked) [Example 87, 1'-(4,4-Dicyclohexylbutyl)-7-chloro-2-methylspiro[2H-1,4-benzodioxepin-3(5H)4'-piperidine]hydrochloride], the “SHR mm Hg (decrease in mean arterial blood pressure)” value (Table III, 50 mg/kg PO) is reported as -69 mm Hg. Take `C[C@](N)(Cc1ccc(O)c(O)c1)C(=O)O` [α-methyl dopa, reference compound]: for the setting “similar test, 50 mg/kg PO for five days”, the SHR value is -40 mm Hg.
